What was measured:
[1] = biological target: telomerase (Homo sapiens, UniProt O14746); experiment: Q-TRAP telomerase activity in PC3 prostate cancer cells; type: cell-based; design: allow the enzymatic addition of telomeric DNA repeats by endogenous telomerase; endogenous in cells; host or cells: PC3 prostate cancer cells (protein extract of lysed cell pellets); key to Significance of RTA difference vs. control: No: non-significant; Yes (*): p < 0.05; Yes (**): p < 0.01; Yes (***): p < 0.001; Yes (****): p < 0.0001
Sequence of telomerase (O14746 whole entry): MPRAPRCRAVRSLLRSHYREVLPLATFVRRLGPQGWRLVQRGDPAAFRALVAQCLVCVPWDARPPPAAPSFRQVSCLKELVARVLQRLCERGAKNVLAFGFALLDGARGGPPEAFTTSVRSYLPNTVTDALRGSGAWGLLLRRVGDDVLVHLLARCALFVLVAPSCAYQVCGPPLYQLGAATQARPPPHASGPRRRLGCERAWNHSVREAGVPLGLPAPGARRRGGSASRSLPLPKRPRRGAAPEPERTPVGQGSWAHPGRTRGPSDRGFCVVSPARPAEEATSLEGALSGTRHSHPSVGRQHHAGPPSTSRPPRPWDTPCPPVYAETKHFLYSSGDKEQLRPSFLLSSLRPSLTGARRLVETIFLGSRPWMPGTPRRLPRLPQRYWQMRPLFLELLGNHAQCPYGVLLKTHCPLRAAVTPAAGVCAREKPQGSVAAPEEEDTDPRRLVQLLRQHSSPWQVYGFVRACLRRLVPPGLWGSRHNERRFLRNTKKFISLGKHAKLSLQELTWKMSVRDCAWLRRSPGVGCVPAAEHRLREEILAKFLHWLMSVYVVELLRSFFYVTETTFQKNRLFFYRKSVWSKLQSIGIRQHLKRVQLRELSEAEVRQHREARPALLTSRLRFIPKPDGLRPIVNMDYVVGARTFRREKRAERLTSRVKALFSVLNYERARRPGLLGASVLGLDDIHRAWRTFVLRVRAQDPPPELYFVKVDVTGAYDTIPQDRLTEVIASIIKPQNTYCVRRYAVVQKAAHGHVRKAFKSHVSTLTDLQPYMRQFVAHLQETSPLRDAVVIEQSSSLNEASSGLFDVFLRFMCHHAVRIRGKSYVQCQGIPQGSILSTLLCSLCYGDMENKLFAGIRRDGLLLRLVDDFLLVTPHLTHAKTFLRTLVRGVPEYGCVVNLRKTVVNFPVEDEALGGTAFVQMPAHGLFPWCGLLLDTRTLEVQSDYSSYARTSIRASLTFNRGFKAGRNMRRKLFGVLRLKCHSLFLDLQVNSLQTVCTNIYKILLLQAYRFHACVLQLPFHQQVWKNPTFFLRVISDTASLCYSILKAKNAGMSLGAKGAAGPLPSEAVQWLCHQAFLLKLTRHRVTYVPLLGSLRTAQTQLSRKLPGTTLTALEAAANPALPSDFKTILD
Sequence of telomerase (O60832 whole entry partner): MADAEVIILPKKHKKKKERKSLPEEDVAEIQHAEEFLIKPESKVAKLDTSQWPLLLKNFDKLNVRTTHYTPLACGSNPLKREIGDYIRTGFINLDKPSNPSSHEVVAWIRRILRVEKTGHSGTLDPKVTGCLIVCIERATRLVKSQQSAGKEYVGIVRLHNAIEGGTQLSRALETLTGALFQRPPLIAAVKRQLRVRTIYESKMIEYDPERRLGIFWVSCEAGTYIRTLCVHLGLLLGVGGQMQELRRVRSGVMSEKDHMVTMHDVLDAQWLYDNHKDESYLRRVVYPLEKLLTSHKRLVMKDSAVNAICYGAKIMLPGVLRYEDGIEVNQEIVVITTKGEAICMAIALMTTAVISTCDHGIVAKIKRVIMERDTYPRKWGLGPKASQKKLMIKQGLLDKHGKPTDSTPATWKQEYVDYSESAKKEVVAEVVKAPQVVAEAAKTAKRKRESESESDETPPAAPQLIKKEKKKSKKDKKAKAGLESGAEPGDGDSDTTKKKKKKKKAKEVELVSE
Sequence of telomerase (Q9NPE3 whole entry partner): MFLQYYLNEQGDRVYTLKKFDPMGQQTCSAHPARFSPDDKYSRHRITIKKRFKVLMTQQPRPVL
Sequence of telomerase (Q9NX24 whole entry partner): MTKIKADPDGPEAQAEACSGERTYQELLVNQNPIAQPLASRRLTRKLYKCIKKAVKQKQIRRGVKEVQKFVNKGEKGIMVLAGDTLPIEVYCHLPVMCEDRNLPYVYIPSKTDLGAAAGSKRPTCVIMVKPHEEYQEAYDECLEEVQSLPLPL
Sequence of telomerase (Q9NY12 whole entry partner): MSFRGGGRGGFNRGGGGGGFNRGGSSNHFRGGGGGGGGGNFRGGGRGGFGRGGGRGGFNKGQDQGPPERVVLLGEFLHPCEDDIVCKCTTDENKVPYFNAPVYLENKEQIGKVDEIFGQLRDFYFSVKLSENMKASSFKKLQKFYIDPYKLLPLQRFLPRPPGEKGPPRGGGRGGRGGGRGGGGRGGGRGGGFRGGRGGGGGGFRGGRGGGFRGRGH
Sequence of telomerase (Q9BUR4 whole entry partner): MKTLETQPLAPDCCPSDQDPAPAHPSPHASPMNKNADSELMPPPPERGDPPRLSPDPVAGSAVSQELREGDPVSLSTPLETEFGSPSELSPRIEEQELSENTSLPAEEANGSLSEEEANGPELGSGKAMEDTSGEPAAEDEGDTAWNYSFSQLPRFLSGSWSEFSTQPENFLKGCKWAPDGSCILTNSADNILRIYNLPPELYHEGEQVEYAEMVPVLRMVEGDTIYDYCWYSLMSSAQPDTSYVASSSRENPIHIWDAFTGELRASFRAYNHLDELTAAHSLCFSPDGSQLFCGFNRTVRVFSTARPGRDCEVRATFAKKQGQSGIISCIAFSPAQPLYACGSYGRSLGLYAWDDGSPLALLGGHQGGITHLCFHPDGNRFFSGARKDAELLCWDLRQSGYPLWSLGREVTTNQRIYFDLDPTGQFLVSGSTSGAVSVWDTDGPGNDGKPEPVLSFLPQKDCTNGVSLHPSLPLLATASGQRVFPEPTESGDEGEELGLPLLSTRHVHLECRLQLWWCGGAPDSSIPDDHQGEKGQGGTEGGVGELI
Experimental: The general mechanism of the Q-TRAP technique involves cellular pellets being lysed for protein extraction which is then subsequently quantified and stored under specific conditions to avoid protein degradation. Protein obtained in the process was used within 72 hours and samples were stored at 4° C. Telomerase protein extracts are then incubated with a specific oligonucleotide substrate to allow the enzymatic addition of telomeric DNA repeats by endogenous telomerase. Following the enzymatic reaction, telomerase extension products are then amplified and quantified by real-time qPCR. In real time PCR, a positive reaction is detected by accumulation of a fluorescent signal. The Ct (cycle threshold) is defined as the number of cycles required for fluorescence to cross the threshold (i.e.: exceeds background levels). […] Data are reported as relative telomerase activity (RTA). […] Telomeric repeat amplification protocol (TRAP) was modified for quantitative real-time PCR (Q-TRAP) and was used to determine the effect of dibenzyl butyl lactone derivative on telomerase activity in prostate cancer cell. The same methods as used in Example 3 were employed. The same abbreviation scheme as presented in Table 7 is used throughout this example as well.

[2] = tested on: human induced pluripotent stem (iPS) cells; type: cell-based
Experimental: The dibenzyl butyl lactone derivative enantiomer A and B were compared to enterolactone and tested to determine toxicity using a human pluripotent stem (hPS) cell-based assay that predicts the developmental toxicity potential. […] The current study was conducted using human induced pluripotent stem (iPS) cells.
The impact of test article exposure on ornithine and cystine metabolism in human induced pluripotent stem (iPS) cells was measured for three test articles (dibenzyl butyl lactone derivative enantiomer A, dibenzyl butyl lactone derivative enantiomer B, and enterolactone) and prediction of the potential for developmental toxicity was made through application of the hPS cell-based assay. Exposure spanned a range of eight treatment levels per test article ranging from 0.03-100 μM.
The observed decrease in the o/c ratio following exposure to each test article is indicative of the potential for developmental toxicity and/or embryo lethality in vivo at or above the dTP concentration. FIGS. 15A-C show the o/c ratio of dibenzyl butyl lactone derivative enantiomer A (FIG. 15A), dibenzyl butyl lactone derivative enantiomer B (FIG. 15B), and (+/−) enterolactone (FIG. 15C). The graphs in FIGS. 15A-C show the cell viability and o/c/ ratio over concentrations of 0.03-100 μM with the straight horizontal line illustrating the developmental toxicity threshold of 0.85.

O=C1OC[C@H](Cc2cccc(O)c2)[C@H]1Cc1cccc(O)c1 (racemic) [Enterolactone, reference compound]
Telomerase Activity RTA (%) ([1]; PC3, 2.5 μM, 24 Hours): 61.02% | Telomerase Activity RTA (%) ([1]; PC3, 2.5 μM, 48 Hours): 3.50% | Telomerase Activity RTA (%) ([1]; PC3, 2.5 μM, 72 Hours): 13.88% | Telomerase Activity RTA (%) ([1]; PC3, 5 μM, 24 Hours): 55.90% | Telomerase Activity RTA (%) ([1]; PC3, 5 μM, 48 Hours): 3.31% | Telomerase Activity RTA (%) ([1]; PC3, 5 μM, 72 Hours): 10.65% | Telomerase Activity RTA (%) ([1]; PC3, 10 μM, 24 Hours): 62.45% | Telomerase Activity RTA (%) ([1]; PC3, 10 μM, 48 Hours): 17.89% | Telomerase Activity RTA (%) ([1]; PC3, 10 μM, 72 Hours): 12.63% | Telomerase Activity RTA (%) ([1]; PC3, 20 μM, 24 Hours): 56.77% | Telomerase Activity RTA (%) ([1]; PC3, 20 μM, 48 Hours): 25.39% | Telomerase Activity RTA (%) ([1]; PC3, 20 μM, 72 Hours): 5.15% | Telomerase Activity RTA (%) ([1]; PC3, 40 μM, 24 Hours): 43.75% | Telomerase Activity RTA (%) ([1]; PC3, 40 μM, 48 Hours): 70.42% | Telomerase Activity RTA (%) ([1]; PC3, 40 μM, 72 Hours): 6.57% | IC50 ([1]; PC3, 24 h): 21.9 µM | telomerase activity levels of treated groups compared to control ([1]; PC3, 24 hours): lower telomerase activity levels compared to control | Significance of RTA difference vs. control ([1]; PC3, 24 hours, 2.5 μM): No | Significance of RTA difference vs. control ([1]; PC3, 24 hours, 5 μM): No | Significance of RTA difference vs. control ([1]; PC3, 24 hours, 10 μM): No | Significance of RTA difference vs. control ([1]; PC3, 24 hours, 20 μM): No | Significance of RTA difference vs. control ([1]; PC3, 24 hours, 40 μM): Yes (*) (Yes (*): p < 0.05) | IC50 ([1]; PC3, 48 h): 0.05 µM | telomerase activity levels of treated groups compared to control ([1]; PC3, 48 hours): four treated groups presented a reduction in RTA | Significance of RTA difference vs. control ([1]; PC3, 48 hours, 2.5 μM): Yes (***) (Yes (***): p < 0.001) | Significance of RTA difference vs. control ([1]; PC3, 48 hours, 5 μM): Yes (***) (Yes (***): p < 0.001) | Significance of RTA difference vs. control ([1]; PC3, 48 hours, 10 μM): Yes (**) (Yes (**): p < 0.01) | Significance of RTA difference vs. control ([1]; PC3, 48 hours, 20 μM): Yes (**) (Yes (**): p < 0.01) | Significance of RTA difference vs. control ([1]; PC3, 48 hours, 40 μM): No | IC50 ([1]; PC3, 72 h): 10.7 µM | telomerase activity levels of treated groups compared to control ([1]; PC3, 72 hours): no significant differences were detected between control and treated groups | Significance of RTA difference vs. control ([1]; PC3, 72 hours, 2.5 μM): No | Significance of RTA difference vs. control ([1]; PC3, 72 hours, 5 μM): No | Significance of RTA difference vs. control ([1]; PC3, 72 hours, 10 μM): No | Significance of RTA difference vs. control ([1]; PC3, 72 hours, 20 μM): No | Significance of RTA difference vs. control ([1]; PC3, 72 hours, 40 μM): No | cytotoxicity compared with the other test articles [2]: less cytotoxic than dibenzyl butyl lactone derivative enantiomers A and B | TP Concentration ([2]; human): 230.8 µM | dTP Concentration ([2]; human): 21.8 µM | similarity of dTP concentrations between all three compounds ([2]; human): ≤ 2 fold

Reference: patent US20250000843A1, “LIGNAN-INSPIRED COMPOUNDS, METHODS OF MAKING, AND USING THEREOF” (IOWAIBO, INC., priority 2023, published 2025)
